± gives the expanded uncertainty stated by the source.
How the values were obtained:
[1] = Crystal 2; DTA
[2] = Solid-liquid equilibrium temperature

CCCCCCCCCCCCCCCCCCCCCCCCCCCCCCCCCCCCCCCC [tetracontane]
Settings | Triple point temperature [K]
[1] | 376.03 ± 0.41

Solid-liquid equilibrium temperature [K], [2]
Settings | 10000 kPa | 35758 kPa | 48436 kPa | 50000 kPa | 68114 kPa | 73917 kPa | 90000 kPa | 112740 kPa | 130000 kPa
Crystal 1 | 357.34 ± 0.55 | 363.15 ± 0.67 | – | 367.26 ± 0.71 | 371.15 ± 0.75 | – | 376.58 ± 0.8 | 381.15 ± 0.84 | 385.22 ± 0.87
Crystal 2 | 351.37 ± 0.54 | – | 363.15 ± 0.7 | 364.54 ± 0.7 | – | 371.15 ± 0.76 | – | – | –

CCCCCCCCCCCCCCCCCCCC [eicosane]
[2], Crystal, DTA
Settings | Solid-liquid equilibrium temperature [K]
33520 kPa | 318.15 ± 0.33
55080 kPa | 323.15 ± 0.35
76800 kPa | 328.15 ± 0.37
99090 kPa | 333.15 ± 0.38
150000 kPa | 344.91 ± 0.41

CCCCCCCCCCCCCCCCCCCCCCCCCCCCCC [triacontane]
Settings | Triple point temperature [K]
[1] | 361.27 ± 0.41

Solid-liquid equilibrium temperature [K], [2]
Settings | 10000 kPa | 25000 kPa | 50000 kPa | 75000 kPa | 100000 kPa | 125000 kPa | 150000 kPa
Crystal 1, DTA | 341.68 ± 0.31 | 345.34 ± 0.34 | 351.45 ± 0.37 | 357 ± 0.39 | 362.54 ± 0.41 | 367.76 ± 0.42 | 372.97 ± 0.44
Crystal 2, DTA | 338.9 ± 0.31 | 343.03 ± 0.34 | 349.8 ± 0.37 | 356.07 ± 0.39 | – | – | –

CCCCCCCCCCCCCCCCCCCCCCCC [tetracosane]
Settings | Triple point temperature [K]
[1] | 339.59 ± 0.41

Solid-liquid equilibrium temperature [K], [2]
Settings | 10000 kPa | 25000 kPa | 40000 kPa | 50000 kPa | 100000 kPa | 125000 kPa | 150000 kPa
Crystal 1, DTA | 326.74 ± 0.31 | 330.4 ± 0.33 | 333.86 ± 0.35 | 336.12 ± 0.36 | 346.93 ± 0.4 | 352.26 ± 0.41 | 357.28 ± 0.42
Crystal 2, DTA | 324.24 ± 0.3 | 328.4 ± 0.33 | 332.37 ± 0.35 | 334.94 ± 0.36 | – | – | –
